Source: ChEMBL document CHEMBL3045776, “[1,2,4]Triazolo[4,3-a]quinoxaline: synthesis, antiviral, and antimicrobial activities” (Med Chem Res, 2012)
Converted amounts (≈) assume the structure as drawn.

Legend:
[1] = test system: Escherichia coli; assay: Antibacterial activity against Escherichia coli after 24 hr by agar dilution method; type: functional
[2] = test system: Escherichia coli; assay: Antibacterial activity against Escherichia coli at 500 ug/disk after 24 hr by disk diffusion method; type: functional; conditions: read-out: IZ
[3] = test system: Staphylococcus aureus; assay: Antibacterial activity against Staphylococcus aureus after 24 hr by agar dilution method; type: functional
[4] = test system: Staphylococcus aureus; assay: Antibacterial activity against Staphylococcus aureus at 500 ug/disk after 24 hr by disk diffusion method; type: functional; conditions: read-out: IZ
[5] = test system: Bacillus subtilis; assay: Antibacterial activity against Bacillus subtilis at 500 ug/disk after 24 hr by disk diffusion method; type: functional; conditions: read-out: IZ
[6] = test system: Human alphaherpesvirus 1; assay: Antiviral activity against Human herpesvirus 1 infected African green monkey Vero cells assessed as reduction of virus induced plaque formation after 66 hr; type: functional; conditions: Human alphaherpesvirus 1, 66 h
[7] = Cytotoxicity against Chlorocebus aethiops (African green monkey) Vero cells; type: cell-based; conditions: chlorocebus sabaeus, read-out: CD50 (the source's name)
[8] = test system: Human alphaherpesvirus 1; assay: Antiviral activity against Human herpesvirus 1 infected African green monkey Vero cells assessed as reduction of virus induced plaque formation at […] after 66 hr; type: functional; set-up: scale not given: the % may be the effect or the level left
[9] = test system: Candida albicans; assay: Antifungal activity against Candida albicans after 48 hr by agar dilution method; type: functional
[10] = test system: Candida albicans; assay: Antifungal activity against Candida albicans at 1000 ug/ml after 72 hr by disk diffusion method; type: functional; conditions: read-out: IZ
[11] = test system: Candida albicans; assay: Antifungal activity against Candida albicans at 500 ug/disk after 72 hr by disk diffusion method; type: functional; conditions: read-out: IZ
[12] = test system: Bacillus subtilis; assay: Antibacterial activity against Bacillus subtilis after 24 hr by agar dilution method; type: functional
[13] = test system: Escherichia coli; assay: Antibacterial activity against Escherichia coli at 50 ug/ml after 24 hr by disk diffusion method; conditions: read-out: IZ
[14] = test system: Staphylococcus aureus; assay: Antibacterial activity against Staphylococcus aureus at 50 ug/ml after 24 hr by disk diffusion method; conditions: read-out: IZ
[15] = test system: Bacillus subtilis; assay: Antibacterial activity against Bacillus subtilis at 50 ug/ml after 24 hr by disk diffusion method; conditions: read-out: IZ

## CC(=O)c1ccc(Nc2nc3ccc(C)cc3n3c(NC(=O)c4ccccc4)nnc23)cc1
[1]
  MIC: 67 µg/mL (≈ 154 µM)
[2]
  zone of inhibition at 500 µg/disc: 15 mm
[3]
  MIC: 94 µg/mL (≈ 215 µM)
[4]
  zone of inhibition at 500 µg/disc: 15 mm
[5]
  zone of inhibition at 500 µg/disc: 10 mm

## COc1ccc(/C=N/c2nnc3c(Cl)nc4ccc(C)cc4n23)cc1OC
[6]
  MIC: 80 µg/mL (≈ 210 µM)
[7]
  CC50: 160 µg/mL (≈ 419 µM)
[8]
  Activity: <25%

## Clc1ccccc1C(c1ccccc1)(c1ccccc1)n1ccnc1 [CLOTRIMAZOLE]
[9]
  MIC: 48 µg/mL (≈ 139 µM)
[10]
  zone of inhibition at 1000 µg/mL: > 20 mm

## Cc1ccc2nc(N3CCCCC3)c3nnc(NC(=O)c4ccccc4)n3c2c1
[11]
  zone of inhibition at 500 µg/disc: 10 mm
[2]
  zone of inhibition at 500 µg/disc: 10 mm
[3]
  MIC: 84 µg/mL (≈ 217 µM)
[4]
  zone of inhibition at 500 µg/disc: 20 mm
[6]
  MIC: 80 µg/mL (≈ 207 µM)
[7]
  CC50: 160 µg/mL (≈ 414 µM)
[8]
  Activity: <25%

## CC(=O)Nc1nnc2c(N3CCN(c4ccccc4C)CC3)nc3ccc(C)cc3n12
[7]
  CC50: > 200 µg/mL

## Cc1ccc2nc(N3CCN(c4ccccc4C)CC3)c3nnc(NC(=O)c4ccccc4)n3c2c1
[6]
  MIC: 80 µg/mL (≈ 168 µM)
[7]
  CC50: 160 µg/mL (≈ 335 µM)
[8]
  Activity: <25%

## Cc1ccc2nc(Cl)c3nnc(/N=C/c4ccc(O)cc4)n3c2c1
[6]
  MIC: 80 µg/mL (≈ 237 µM)
[7]
  CC50: 160 µg/mL (≈ 474 µM)
[8]
  Activity: <25%

## CCOC(=O)c1cnc2n(nc3c(Cl)nc4ccc(C)cc4n32)c1=O
[4]
  zone of inhibition at 500 µg/disc: 10 mm

## COC(=O)c1cc(=O)n2nc3c(Cl)nc4ccc(C)cc4n3c2n1
[6]
  MIC: 80 µg/mL (≈ 233 µM)
[7]
  CC50: 160 µg/mL (≈ 465 µM)
[8]
  Activity: <25%

## Cc1ccc2nc(N3CCN(c4ccccc4C)CC3)c3nnc(N)n3c2c1
[11]
  zone of inhibition at 500 µg/disc: 10 mm
[1]
  MIC: 85 µg/mL (≈ 228 µM)
[2]
  zone of inhibition at 500 µg/disc: 10 mm
[5]
  zone of inhibition at 500 µg/disc: 10 mm

## Cc1ccc2nc(Cl)c3nnc(NC(=S)Nc4ccccc4)n3c2c1
[6]
  MIC: 20 µg/mL (≈ 54.2 µM)
[7]
  CC50: 200 µg/mL (≈ 542 µM)
[8]
  Activity: 25%

## COc1ccc(/C=N/c2n[nH]c(Sc3nc4ccc(C)cc4n4c(N)nnc34)n2)cc1OC
[9]
  MIC: 112 µg/mL (≈ 243 µM)
[11]
  zone of inhibition at 500 µg/disc: 20 mm
[1]
  MIC: 102 µg/mL (≈ 221 µM)
[2]
  zone of inhibition at 500 µg/disc: 15 mm
[4]
  zone of inhibition at 500 µg/disc: 10 mm
[5]
  zone of inhibition at 500 µg/disc: 10 mm

## C[C@@]1(CO)[C@H](O)CC[C@@]2(C)[C@H]1CC[C@H]1C[C@@H]3C[C@@]12CC[C@]3(O)CO [APHIDICOLIN]
[6]
  MIC: 5 µg/mL (≈ 14.8 µM)
[7]
  CC50: 20 µg/mL (≈ 59.1 µM)
[8]
  Activity: 100%

## Cc1ccc2nc(Sc3nnc(-c4cccs4)n3-c3ccccc3)c3nnc(N)n3c2c1
[9]
  MIC: 78 µg/mL (≈ 171 µM)
[11]
  zone of inhibition at 500 µg/disc: 20 mm
[1]
  MIC: 98 µg/mL (≈ 215 µM)
[2]
  zone of inhibition at 500 µg/disc: 20 mm
[3]
  MIC: 124 µg/mL (≈ 272 µM)
[4]
  zone of inhibition at 500 µg/disc: 15 mm
[12]
  MIC: 91 µg/mL (≈ 199 µM)
[5]
  zone of inhibition at 500 µg/disc: 15 mm
[6]
  MIC: 80 µg/mL (≈ 175 µM)
[7]
  CC50: 160 µg/mL (≈ 350 µM)
[8]
  Activity: <25%

## O=C(O)c1cn(C2CC2)c2cc(N3CCNCC3)c(F)cc2c1=O [CIPROFLOXACIN]
[1]
  MIC: 57 µg/mL (≈ 172 µM)
[13]
  zone of inhibition at 50 µg/mL: > 20 mm
[3]
  MIC: 76 µg/mL (≈ 229 µM)
[14]
  zone of inhibition at 50 µg/mL: > 20 mm
[12]
  MIC: 62 µg/mL (≈ 187 µM)
[15]
  zone of inhibition at 50 µg/mL: 15 mm

## Cc1ccc2nc(Sc3nnc(-c4ccccc4O)o3)c3nnc(N)n3c2c1
[6]
  MIC: 80 µg/mL (≈ 204 µM)
[7]
  CC50: 160 µg/mL (≈ 409 µM)
[8]
  Activity: <25%

## CCNC(=S)Nc1nnc2c(Cl)nc3ccc(C)cc3n12
[9]
  MIC: 89 µg/mL (≈ 277 µM)
[11]
  zone of inhibition at 500 µg/disc: 20 mm
[1]
  MIC: 87 µg/mL (≈ 271 µM)
[2]
  zone of inhibition at 500 µg/disc: 15 mm
[3]
  MIC: 115 µg/mL (≈ 358 µM)
[4]
  zone of inhibition at 500 µg/disc: 15 mm
[5]
  zone of inhibition at 500 µg/disc: 10 mm
[6]
  MIC: 80 µg/mL (≈ 249 µM)
[7]
  CC50: 160 µg/mL (≈ 499 µM)
[8]
  Activity: <25%

## Cc1ccc2nc(Sc3nnc(-c4cccnc4)o3)c3nnc(N)n3c2c1
[2]
  zone of inhibition at 500 µg/disc: 10 mm
[6]
  MIC: 80 µg/mL (≈ 213 µM)
[7]
  CC50: 160 µg/mL (≈ 425 µM)
[8]
  Activity: <25%
